Test results: EP0499662A1, “Compositions with enhanced penetration” (WARNER-LAMBERT COMPANY, priority 1991, dated 1992)

Assay: in vitro permeation (diffusion) study across hairless mouse skin

C[C@]12CCC(=O)C=C1CC[C@@H]1[C@@H]2[C@@H](O)C[C@@]2(C)[C@H]1CC[C@]2(O)C(=O)CO [Hydrocortisone, hydrocortisone]
Avg. Flux (formulation EtOH, saturated with the drug except for verapamil, average of the flux values at each sampling time within 24 hours): 0.64 µg/cm^2/h
Avg. Flux (formulation EtOH:Mig 20:80, saturated with the drug except for verapamil, average within 24 hours): 10.24 µg/cm^2/h
Avg. Flux (formulation Mig (Miglyol 840), saturated with the drug except for verapamil, average within 24 hours): 1.49 µg/cm^2/h
